ChEMBL document CHEMBL4304775, “Identification and characterization of a novel chemotype for human TLR8 inhibitors” (Eur J Med Chem, 2019)
Active and inactive are the calls of the source. The rule behind the calls is not given here.

What was measured:
Type in all cases: cell-based
[1] = target: T1, Toll-like receptor 8 (Homo sapiens, UniProt Q9NR97); test: Antagonist activity at human TLR8 expressed in HEK-Blue cells assessed as inhibition of CL075-induced NF-kappaB activation incubated for 1 hr followed by CL075-stimulation and measured after 24 hrs by quanti-blue SEAP assay
T1 sequence (Q9NR97 whole entry): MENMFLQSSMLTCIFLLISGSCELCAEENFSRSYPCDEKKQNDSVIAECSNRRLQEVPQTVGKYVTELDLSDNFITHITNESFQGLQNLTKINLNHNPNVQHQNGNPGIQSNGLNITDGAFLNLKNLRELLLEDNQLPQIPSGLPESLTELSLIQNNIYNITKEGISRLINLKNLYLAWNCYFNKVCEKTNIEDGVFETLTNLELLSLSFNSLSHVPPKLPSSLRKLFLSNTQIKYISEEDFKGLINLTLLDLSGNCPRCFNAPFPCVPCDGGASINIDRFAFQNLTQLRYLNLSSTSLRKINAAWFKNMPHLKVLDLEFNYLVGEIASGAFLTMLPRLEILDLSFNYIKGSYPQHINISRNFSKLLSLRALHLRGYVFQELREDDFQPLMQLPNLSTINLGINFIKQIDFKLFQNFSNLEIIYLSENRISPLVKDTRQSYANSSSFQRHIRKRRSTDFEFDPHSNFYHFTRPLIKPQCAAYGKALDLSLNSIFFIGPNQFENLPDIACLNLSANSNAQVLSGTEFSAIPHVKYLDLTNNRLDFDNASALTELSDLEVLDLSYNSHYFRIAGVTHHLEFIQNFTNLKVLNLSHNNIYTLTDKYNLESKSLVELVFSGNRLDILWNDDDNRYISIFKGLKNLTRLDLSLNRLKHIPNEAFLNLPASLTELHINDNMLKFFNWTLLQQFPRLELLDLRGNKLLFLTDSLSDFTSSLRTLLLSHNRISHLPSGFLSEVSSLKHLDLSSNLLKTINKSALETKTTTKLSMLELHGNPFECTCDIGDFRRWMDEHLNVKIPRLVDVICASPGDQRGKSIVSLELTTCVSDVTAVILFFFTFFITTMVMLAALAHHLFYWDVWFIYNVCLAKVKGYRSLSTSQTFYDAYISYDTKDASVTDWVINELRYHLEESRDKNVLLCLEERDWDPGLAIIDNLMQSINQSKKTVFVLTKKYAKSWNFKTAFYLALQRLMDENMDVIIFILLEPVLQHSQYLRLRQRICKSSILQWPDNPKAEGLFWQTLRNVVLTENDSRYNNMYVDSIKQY

[2] = target: T2, Toll-like receptor 8 (Homo sapiens) (UniProt Q9NR97); test: Antagonist activity at human TLR8 expressed in HEK-Blue cells assessed as reduction in CL075-induced NF-kappaB activation at 25 uM incubated for 1 hr followed by CL075-stimulation and measured after 24 hrs by quanti-blue SEAP assay relative to control
T2 sequence (whole entry): T1 sequence (Q9NR97 whole entry)

[3] = target: T3, Toll-like receptor 7 (Homo sapiens) (UniProt Q9NYK1); test: Antagonist activity at human TLR7 expressed in HEK-Blue cells assessed as inhibition of CL075-induced NF-kappaB activation incubated for 1 hr followed by CL075-stimulation and measured after 24 hrs by quanti-blue SEAP assay
T3 sequence (whole entry): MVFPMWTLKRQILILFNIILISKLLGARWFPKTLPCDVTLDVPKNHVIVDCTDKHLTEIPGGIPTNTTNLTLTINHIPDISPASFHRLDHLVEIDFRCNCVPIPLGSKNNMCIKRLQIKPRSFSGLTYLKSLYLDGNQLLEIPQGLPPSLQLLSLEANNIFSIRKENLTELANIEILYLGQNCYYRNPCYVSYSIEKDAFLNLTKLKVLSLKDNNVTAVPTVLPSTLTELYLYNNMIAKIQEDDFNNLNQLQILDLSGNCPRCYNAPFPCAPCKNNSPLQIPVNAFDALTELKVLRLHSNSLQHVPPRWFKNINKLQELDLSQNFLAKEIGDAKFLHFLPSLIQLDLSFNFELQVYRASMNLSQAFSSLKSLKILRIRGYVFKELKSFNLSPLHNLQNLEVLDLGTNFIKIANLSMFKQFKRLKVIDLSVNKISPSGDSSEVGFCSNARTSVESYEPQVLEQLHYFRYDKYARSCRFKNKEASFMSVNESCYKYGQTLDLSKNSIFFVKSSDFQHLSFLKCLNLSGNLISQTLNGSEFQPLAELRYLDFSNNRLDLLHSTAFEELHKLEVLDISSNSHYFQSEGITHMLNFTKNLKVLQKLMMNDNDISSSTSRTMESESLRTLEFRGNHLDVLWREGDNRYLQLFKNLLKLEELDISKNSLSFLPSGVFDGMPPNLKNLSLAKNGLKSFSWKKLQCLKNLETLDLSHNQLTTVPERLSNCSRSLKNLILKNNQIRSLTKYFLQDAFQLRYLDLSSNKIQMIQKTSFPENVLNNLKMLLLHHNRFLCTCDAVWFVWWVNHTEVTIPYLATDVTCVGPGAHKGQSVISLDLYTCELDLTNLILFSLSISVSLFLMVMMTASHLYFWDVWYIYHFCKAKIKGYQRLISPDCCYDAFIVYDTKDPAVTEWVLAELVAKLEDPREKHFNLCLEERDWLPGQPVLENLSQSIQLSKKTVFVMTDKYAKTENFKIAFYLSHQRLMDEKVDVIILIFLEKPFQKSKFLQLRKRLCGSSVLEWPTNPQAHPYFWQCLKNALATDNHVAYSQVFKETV

| IC50 [1] [µM] | inhibition [2] [%] | inhibition [3] | Structure (SMILES) |
| --- | --- | --- | --- |
| 20 | < 50 | inactive | FC(F)(F)c1cc(-c2ccccc2)nc(NCc2cccs2)n1 |
| 35.5 | < 50 | inactive | CCCCNc1nc(-c2cccs2)cc(C(F)(F)F)n1 |
| 9.2 | < 50 | inactive | FC(F)(F)c1cc(-c2ccco2)nc(NCc2cccs2)n1 |
